# Data taken from patent US20210332073A1, “PROCESS FOR THE PREPARATION OF FERRIC CITRATE” (priority 2020, published 2021).
# Where a name gives a salt, the structure may show the parent alone.
# Assay: Specific surface area of isolated ferric citrate
# Format: physicochemical
# Settings: vacuum dried at 30-40° C.
Compound,"specific surface area (Method B: two lots combined, sieve BSS 200/75 micron)","specific surface area (Method A step c: acetone dumped in one lot, 20 mesh sieve)"
"O=C1CC2(O)CC(=O)[O][Fe]([O]1)[O]C2=O [Example-3, ferric citrate]",above 16 sq. m/g,
"O=C1CC2(O)CC(=O)[O][Fe]([O]1)[O]C2=O [Ferric citrate, iron (+3), x (1,2,3-propanetricarboxylic acid, 2-hydroxy-), y (H2O)]",,above 20 m^2/g
